From the supplement of paper PMC11061612

Columns and labels:
AZD4320 = compound: CN(CC[C@H](CSC1=CC=CC=C1)NC2=C(C=C(C=C2)S(=O)(=O)NC(=O)C3=CC=C(C=C3)N4CCC(CC4)[C@H](C5=CC=CC=C5C6=CC=C(C=C6)Cl)O)S(=O)(=O)C(F)(F)F)CCO [AZD4320]; conditions: max 1 µM
Method in brief: (§1)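 Cancer cell lines were plated in 1536-well plates in 7.5 μl of DMEM/F12 or RPMI with 10% FBS and kept 24 hours at 37°C and 5% CO2 before 72 hours of dosing, with final DMSO typically 0.2%. CellTiter-Glo 2.0 luminescence measured viability, scaled between blank-well and DMSO-well means. Dose responses were fitted to a two-parameter logistic curve with a non-linear mixed effects model. This fit gives the single-agent IC50.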

Doxorubicin = compound: COc1cccc2c1C(=O)c1c(O)c3c(c(O)c1C2=O)C[C@@](O)(C(=O)CO)C[C@@H]3O[C@H]1C[C@H](N)[C@H](O)[C@H](C)O1 [Doxorubicin]; conditions: max 1 µM
Method in brief: as §1

Gefitinib = compound: COc1cc2ncnc(Nc3ccc(F)c(Cl)c3)c2cc1OCCCN1CCOCC1 [Gefitinib]; conditions: max 10 µM
Method in brief: as §1

Venetoclax = compound: CC1(C)CCC(CN2CCN(c3ccc(C(=O)NS(=O)(=O)c4ccc(NCC5CCOCC5)c([N+](=O)[O-])c4)c(Oc4cnc5[nH]ccc5c4)c3)CC2)=C(c2ccc(Cl)cc2)C1 [Venetoclax]; conditions: max 1 µM
Method in brief: as §1

Dasatinib = compound: CC1=C(C(=CC=C1)Cl)NC(=O)C2=CN=C(S2)NC3=CC(=NC(=N3)C)N4CCN(CC4)CCO [Dasatinib]; conditions: max 2 µM
Method in brief: as §1

Palbociclib = compound: CC(=O)c1c(C)c2cnc(Nc3ccc(N4CCNCC4)cn3)nc2n(C2CCCC2)c1=O [Palbociclib]; conditions: max 10 µM
Method in brief: as §1

Olaparib = compound: O=C(c1cc(Cc2n[nH]c(=O)c3ccccc23)ccc1F)N1CCN(C(=O)C2CC2)CC1 [Olaparib]; conditions: max 10 µM
Method in brief: as §1

Taselisib = compound: Cc1nc(-c2cn3c(n2)-c2ccc(-c4cnn(C(C)(C)C(N)=O)c4)cc2OCC3)n(C(C)C)n1 [Taselisib]; conditions: max 10 µM
Method in brief: as §1

AZD0156 = compound: CN(C)CCCOc1ccc(-c2ccc3ncc4c(c3c2)n(C2CCOCC2)c(=O)n4C)cn1 [AZD0156]; conditions: max 3 µM
Method in brief: as §1

AZD5991 = compound: Cc1c2c(nn1C)CSCc1cc(n(C)n1)CSc1cc(c3ccccc3c1)OCCCc1c(C(=O)O)n(C)c3c-2c(Cl)ccc13 [AZD5991]; conditions: max 1 µM
Method in brief: as §1

Lapatinib = compound: CS(=O)(=O)CCNCc1ccc(-c2ccc3ncnc(Nc4ccc(OCc5cccc(F)c5)c(Cl)c4)c3c2)o1 [Lapatinib]; conditions: max 10 µM
Method in brief: as §1

AZD6738 = compound: C[C@@H]1COCCN1C2=NC(=NC(=C2)C3(CC3)[S@](=N)(=O)C)C4=C5C=CNC5=NC=C4 [AZD6738]; conditions: max 10 µM
Method in brief: as §1

AZD5153 = compound: COc1nnc2ccc(N3CCC(c4ccc(OCCN5CCN(C)C(=O)[C@H]5C)cc4)CC3)nn12 [AZD5153]; conditions: max 1 µM
Method in brief: as §1

Trametinib = compound: CC(=O)Nc1cccc(-n2c(=O)n(C3CC3)c(=O)c3c(Nc4ccc(I)cc4F)n(C)c(=O)c(C)c32)c1 [Trametinib]; conditions: max 1 µM
Method in brief: as §1

Crizotinib = compound: C[C@@H](Oc1cc(-c2cnn(C3CCNCC3)c2)cnc1N)c1c(Cl)ccc(F)c1Cl [Crizotinib]; conditions: max 10 µM
Method in brief: as §1

Savolitinib = compound: C[C@@H](c1ccc2nccn2c1)n1nnc2ncc(-c3cnn(C)c3)nc21 [Savolitinib]; conditions: max 1 µM
Method in brief: as §1

AZD7648 = compound: Cc1cc2ncnn2cc1Nc1ncc2c(n1)n(C1CCOCC1)c(=O)n2C [AZD7648]; conditions: max 10 µM
Method in brief: as §1

AZD8186 = compound: C[C@@H](Nc1cc(F)cc(F)c1)c1cc(C(=O)N(C)C)cc2c(=O)cc(N3CCOCC3)oc12 [AZD8186]; conditions: max 3 µM
Method in brief: as §1

Prexasertib = compound: COc1cccc(OCCCN)c1-c1cc(Nc2cnc(C#N)cn2)n[nH]1 [Prexasertib]; conditions: max 1 µM
Method in brief: as §1

Alisertib = compound: COc1cc(Nc2ncc3c(n2)-c2ccc(Cl)cc2C(c2c(F)cccc2OC)=NC3)ccc1C(=O)O [Alisertib]; conditions: max 10 µM
Method in brief: as §1

AZD1390 = compound: CC(C)n1c(=O)n(C)c2cnc3cc(F)c(-c4ccc(OCCCN5CCCCC5)nc4)cc3c21 [AZD1390]; conditions: max 0.3 µM
Method in brief: as §1

AZD1775 = compound: C=CCn1c(=O)c2cnc(Nc3ccc(N4CCN(C)CC4)cc3)nc2n1-c1cccc(C(C)(C)O)n1 [AZD1775]; conditions: max 3 µM
Method in brief: as §1

SN-38 = compound: CCc1c2c(nc3ccc(O)cc13)-c1cc3c(c(=O)n1C2)COC(=O)[C@]3(O)CC [SN-38]; conditions: max 0.3 µM
Method in brief: as §1

AZD2811 = compound: CCN(CCO)CCCOc1ccc2c(Nc3cc(CC(=O)Nc4cccc(F)c4)[nH]n3)ncnc2c1 [AZD2811]; conditions: max 1 µM
Method in brief: as §1

Capivasertib = compound: C1CN(CCC1(C(=O)N[C@@H](CCO)C2=CC=C(C=C2)Cl)N)C3=NC=NC4=C3C=CN4 [Capivasertib]; conditions: max 10 µM
Method in brief: as §1

Selumetinib = compound: Cn1cnc2c(F)c(Nc3ccc(Br)cc3Cl)c(C(=O)NOCCO)cc21 [Selumetinib]; conditions: max 10 µM
Method in brief: as §1

SG3199 = compound: CC1=CN2[C@@H](C1)C=NC3=CC(=C(C=C3C2=O)OC)OCCCCCOC4=C(C=C5C(=C4)N=C[C@@H]6CC(=CN6C5=O)C)OC [SG3199]; conditions: max 0.001 µM
Method in brief: as §1

Cell Line	IC50, cell viability 72 h (AZD4320) [nM]	IC50, cell viability 72 h (Doxorubicin) [nM]	IC50, cell viability 72 h (Gefitinib) [nM]	IC50, cell viability 72 h (Venetoclax) [nM]	IC50, cell viability 72 h (Dasatinib) [nM]	IC50, cell viability 72 h (Palbociclib) [nM]	IC50, cell viability 72 h (Olaparib) [nM]	IC50, cell viability 72 h (Taselisib) [nM]	IC50, cell viability 72 h (AZD0156) [nM]	IC50, cell viability 72 h (AZD5991) [nM]	IC50, cell viability 72 h (Lapatinib) [nM]	IC50, cell viability 72 h (AZD6738) [nM]	IC50, cell viability 72 h (AZD5153) [nM]	IC50, cell viability 72 h (Trametinib) [nM]	IC50, cell viability 72 h (Crizotinib) [nM]	IC50, cell viability 72 h (Savolitinib) [nM]	IC50, cell viability 72 h (AZD7648) [nM]	IC50, cell viability 72 h (AZD8186) [nM]	IC50, cell viability 72 h (Prexasertib) [nM]	IC50, cell viability 72 h (Alisertib) [nM]	IC50, cell viability 72 h (AZD1390) [nM]	IC50, cell viability 72 h (AZD1775) [nM]	IC50, cell viability 72 h (SN-38) [nM]	IC50, cell viability 72 h (AZD2811) [nM]	IC50, cell viability 72 h (Capivasertib) [nM]	IC50, cell viability 72 h (Selumetinib) [nM]	IC50, cell viability 72 h (SG3199) [nM]
CAL-120 (Breast Carcinoma)	825	> 1000	> 10000	> 1000	> 2000	> 10000	> 10000	> 10000	> 3000	> 1000	> 10000	> 10000	> 1000	> 1000	> 10000	> 1000	> 10000	> 3000	656	> 10000	> 300	1620	296	> 1000	> 10000	> 10000	> 1
23132-87 (Gastric Carcinoma)	> 1000	369	> 10000	> 1000	> 2000	> 10000	> 10000	> 10000	> 3000	348	> 10000	4790	> 1000	> 1000	> 10000	> 1000	> 10000	> 3000	32.6	> 10000	> 300	375	22.1	> 1000	> 10000	> 10000	> 1
KE-37 (T-Lymphoblastic Leukemia)	28.3	53.8	> 10000	> 1000	> 2000	3850	> 10000	3110	> 3000	267	8530	403	210	> 1000	3220	> 1000	8540	> 3000	4.58	125	> 300	129	1.86	20.5	1100	> 10000	> 1
WM793B (Melanoma)	> 1000	471	> 10000	> 1000	> 2000	> 10000	> 10000	2800	> 3000	> 1000	> 10000	3100	493	175	> 10000	> 1000	> 10000	> 3000	27.8	> 10000	> 300	1930	22.8	> 1000	> 10000	7020	> 1
HCT-15 (Colorectal Carcinoma)	> 1000	619	> 10000	> 1000	1730	> 10000	> 10000	3860	> 3000	> 1000	> 10000	4000	227	> 1000	7410	> 1000	> 10000	> 3000	139	4210	> 300	544	53.5	> 1000	> 10000	> 10000	> 1
